Where “and” joins values, the source holds several entries; their conditions need not be identical. Identical values can stand only once. Inconclusive results and toxic doses are left out.

The assay has as its system P388 leukemia ip, CD2F1 mice, survival T/C. Briefly: NCI In Vivo Anticancer Drug Screen. Data for tumor model P388 Leukemia (intraperitoneal) in CD2F1 (CDF1) mice. To be noted: endpoint: median survival time, higher = longer survival. Summed up: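 Mice carrying the transplanted tumor received test compound or vehicle. Survival was recorded in each group, and the value is the treated-group measurement divided by that of the vehicle-treated control group.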

Setting [1] is: dose: 50.0 mg/kg/injection, schedule: Q01DX005 (ip), vehicle: Klucel (hydroxypropylcellulose) (HPC).
Where [2] appears, read: dose: 100.0 mg/kg/injection, schedule: Q01DX005 (ip), vehicle: Klucel (hydroxypropylcellulose) (HPC).
[3] abbreviates: dose: 200.0 mg/kg/injection, schedule: Q01DX005 (ip), vehicle: Klucel (hydroxypropylcellulose) (HPC).
[4] abbreviates: dose: 100.0 mg/kg/injection, schedule: Q04DX002 (ip), vehicle: saline with Tween-80.
[5] abbreviates: dose: 200.0 mg/kg/injection, schedule: Q04DX002 (ip), vehicle: saline with Tween-80.
Where [6] appears, read: dose: 400.0 mg/kg/injection, schedule: Q04DX002 (ip), vehicle: saline with Tween-80.
[7] abbreviates: dose: 50.0 mg/kg/injection, schedule: Q01DX009 (ip), vehicle: Klucel (hydroxypropylcellulose) (HPC).
The mark [8] stands for this setting: dose: 100.0 mg/kg/injection, schedule: Q01DX009 (ip), vehicle: Klucel (hydroxypropylcellulose) (HPC).
Where [9] appears, read: dose: 100.0 mg/kg/injection, schedule: Q01DX009 (ip), vehicle: saline with Tween-80.
[10] abbreviates: dose: 200.0 mg/kg/injection, schedule: Q01DX009 (ip), vehicle: saline with Tween-80.
[11] abbreviates: dose: 400.0 mg/kg/injection, schedule: Q01DX009 (ip), vehicle: saline with Tween-80.
Setting [12] is: dose: 25.0 mg/kg/injection, schedule: Q01DX009 (ip), vehicle: Klucel (hydroxypropylcellulose) (HPC).
The mark [13] stands for this setting: dose: 100.0 mg/kg/injection, schedule: Q04DX003 (ip), vehicle: saline with Tween-80.
Setting [14] is: dose: 200.0 mg/kg/injection, schedule: Q04DX003 (ip), vehicle: saline with Tween-80.
The mark [15] stands for this setting: dose: 400.0 mg/kg/injection, schedule: Q04DX003 (ip), vehicle: saline with Tween-80.
The mark [16] stands for this setting: dose: 12.5 mg/kg/injection, schedule: Q01DX005 (ip), vehicle: saline with Tween-80.

As for `NC1(C(=O)O)CCc2ccccc2C1` (configuration not stated), the T/C under setting [1] was 104 % of control, the T/C under setting [2] was 102 % of control and the T/C under setting [3] was 100 % of control.

For the compound `CNC(=O)OC1=NCCN1`, the T/C is 94 % of control under setting [1], 100 % of control under setting [2] and 99 % of control under setting [3].

Turning to `CN=C1c2ccccc2C(=O)c2c1c(O)n(-c1ccccc1)c2O`, the T/C under setting [1] was 96 % of control and the T/C under setting [2] was 100 % of control.

As to `[N-]=[N+]=NC(=O)c1cnn(Cc2ccccc2)c1N`, the T/C is, setting by setting: (dose: 100.0 mg/kg/injection, schedule: Q01DX001 (ip), vehicle: saline with Tween-80) 103 % of control; (dose: 200.0 mg/kg/injection, schedule: Q01DX001 (ip), vehicle: saline with Tween-80) 101 % of control.

Turning to `NC(CSCNc1ncnc2c1ncn2C1OC(CO)C(O)C1O)C(=O)O` (configuration not stated), the T/C is 105 % of control under setting [4], 105 % of control under setting [5] and 102 % of control under setting [6].

`O=C1c2ccccc2C(C2c3ccccc3C(=O)c3cc(Br)ccc32)c2ccc(Br)cc21` (configuration not stated): the T/C was 88 % of control (dose: 12.5 mg/kg/injection, schedule: Q01DX005 (ip), vehicle: Klucel (hydroxypropylcellulose) (HPC)); 97 % of control (dose: 25.0 mg/kg/injection, schedule: Q01DX005 (ip), vehicle: Klucel (hydroxypropylcellulose) (HPC)); 90 % of control under setting [1]; 86 % of control under setting [2].

For the compound `CC(=O)OC1N(C(C)=O)C(SC23CC4CC(CC(C4)C2)C3)C(C)=CC1(C)OC(C)=O` (configuration not stated), the T/C is 111 % of control under setting [7]; 110 % of control under setting [8]; 105 % of control (dose: 200.0 mg/kg/injection, schedule: Q01DX009 (ip), vehicle: Klucel (hydroxypropylcellulose) (HPC)).

On to `CNS(=O)(=O)c1ccc2c(c1)[nH]c(=S)n2C`, for which the T/C is 95 % of control under setting [9], 90 % of control under setting [10] and 90 % of control under setting [11].

With `CC(N)(CSCc1ccccc1)C(=O)O` (configuration not stated), the T/C reads like this: under setting [12], 100 % of control; under setting [7], 103 % of control; under setting [8], 107 % of control.

For the compound `CNC(=O)OCc1nc(-c2ccccc2)sc1COC(=O)NC`, the T/C runs as follows: (dose: 12.5 mg/kg/injection, schedule: Q01DX005 (ip), vehicle: distilled water + Tween-80) 94 % of control; (dose: 25.0 mg/kg/injection, schedule: Q01DX005 (ip), vehicle: distilled water + Tween-80) 93 % of control.

Regarding `CCC(Cl)C#N` (configuration not stated), the T/C was 106 % of control (dose: 7.5 mg/kg/injection, schedule: Q01DX005 (ip), vehicle: saline with Tween-80) and 100 % of control (dose: 15.0 mg/kg/injection, schedule: Q01DX005 (ip), vehicle: saline with Tween-80).

Consider `COc1cc([N+](=O)[O-])cc(/C=C(\C)C2SC(C)(C)C(C)CN2C)c1O` (configuration not stated), for which the T/C is, setting by setting: under setting [13], 109 % of control; under setting [14], 103 % of control; under setting [15], 100 % of control.

On to `CC(C)c1oc(=O)cc2c1[C@@H](O)[C@H]1OC(=O)[C@@]3(C)[C@@H](O)[C@H]4O[C@H]4[C@@]2(C)[C@@H]13`, for which the T/C (dose: 0.94 mg/kg/injection, schedule: Q01DX001 (ip), vehicle: saline with Tween-80) is 105 % of control; the T/C (dose: 1.0 mg/kg/injection, schedule: Q01DX009 (ip), vehicle: saline with Tween-80) is 104 % of control; the T/C (dose: 1.88 mg/kg/injection, schedule: Q01DX001 (ip), vehicle: saline with Tween-80) was 105 % of control; the T/C (dose: 3.75 mg/kg/injection, schedule: Q01DX001 (ip), vehicle: saline with Tween-80) was 101 % of control and 107 % of control; the T/C (dose: 7.5 mg/kg/injection, schedule: Q01DX009 (ip), vehicle: saline with Tween-80) was 120 % of control; the T/C (dose: 10.0 mg/kg/injection, schedule: Q01DX009 (ip), vehicle: saline with Tween-80) is 113 % of control and 115 % of control. Also, the T/C runs as follows: (dose: 15.0 mg/kg/injection, schedule: Q01DX001 (ip), vehicle: saline with Tween-80) 108 % of control and 120 % of control; (dose: 15.0 mg/kg/injection, schedule: Q01DX009 (ip), vehicle: saline with Tween-80) 104 % of control; (dose: 30.0 mg/kg/injection, schedule: Q01DX001 (ip), vehicle: saline with Tween-80) 109 % of control and 113 % of control.

For `CCCCCCCCCCCCCCCC(=O)NCCO`, the T/C reads like this: (dose: 33.0 mg/kg/injection, schedule: Q04DX003 (ip), vehicle: saline with Tween-80) 91 % of control; (dose: 75.0 mg/kg/injection, schedule: Q04DX003 (ip), vehicle: saline with Tween-80) 87 % of control.

For `O=C(Nc1ccccc1)c1ccco1`, the T/C is 106 % of control (dose: 100.0 mg/kg/injection, schedule: Q01DX001 (ip), vehicle: Klucel (hydroxypropylcellulose) (HPC)); 102 % of control (dose: 200.0 mg/kg/injection, schedule: Q01DX001 (ip), vehicle: Klucel (hydroxypropylcellulose) (HPC)); 96 % of control (dose: 400.0 mg/kg/injection, schedule: Q01DX001 (ip), vehicle: Klucel (hydroxypropylcellulose) (HPC)).

In the case of `Cc1ccc(-n2cnc3c(N)nc(N)nc32)cc1`, the T/C (dose: 1.56 mg/kg/injection, schedule: Q01DX005 (ip), vehicle: saline with Tween-80) is 100 % of control; the T/C (dose: 3.13 mg/kg/injection, schedule: Q01DX005 (ip), vehicle: saline with Tween-80) is 108 % of control; the T/C (dose: 6.25 mg/kg/injection, schedule: Q01DX005 (ip), vehicle: saline with Tween-80) is 108 % of control and 112 % of control; the T/C under setting [16] is 115 % of control.

Turning to `CCN(CC)C1=NS(=O)(=O)c2ccccc2C(NN)=C1C`, the T/C is, setting by setting: (dose: 6.25 mg/kg/injection, schedule: Q01DX009 (ip), vehicle: Klucel (hydroxypropylcellulose) (HPC)) 90 % of control; (dose: 12.5 mg/kg/injection, schedule: Q01DX009 (ip), vehicle: Klucel (hydroxypropylcellulose) (HPC)) 90 % of control; under setting [12], 104 % of control; under setting [4], 92 % of control; under setting [5], 99 % of control; under setting [6], 97 % of control.

In the case of `O=C(NC(=O)c1c(F)cccc1F)Nc1nc2ccccc2s1`, the T/C reads like this: (dose: 6.25 mg/kg/injection, schedule: Q01DX009 (ip), vehicle: saline with Tween-80) 113 % of control; (dose: 12.5 mg/kg/injection, schedule: Q01DX009 (ip), vehicle: saline with Tween-80) 100 % of control; (dose: 25.0 mg/kg/injection, schedule: Q01DX009 (ip), vehicle: saline with Tween-80) 105 % of control.

`C=CC1CC(NC(=O)OC)C(=O)O1` (configuration not stated): the T/C is, setting by setting: (dose: 50.0 mg/kg/injection, schedule: Q01DX005 (ip), vehicle: saline with Tween-80) 104 % of control; (dose: 100.0 mg/kg/injection, schedule: Q01DX005 (ip), vehicle: saline with Tween-80) 104 % of control; (dose: 200.0 mg/kg/injection, schedule: Q01DX005 (ip), vehicle: saline with Tween-80) 99 % of control.

With `CO/N=C1\CC(C)N2C(=O)C(C(C)C)NC(=O)C(NC(=O)c3c4nc5c(C(=O)NC6C(=O)NC(C(C)C)C(=O)N7C(C)CC(O)C7C(=O)N(C)CC(=O)N(C)C(C(C)C)C(=O)OC6C)ccc(C)c5oc-4c(C)c(=O)c3N)C(CO)OC(=O)C(C)N(C)C(=O)CN(C)C(=O)C12` (configuration not stated), the T/C runs as follows: under setting [16], 161 % of control; (dose: 25.0 mg/kg/injection, schedule: Q01DX005 (ip), vehicle: saline with Tween-80) 180 % of control.

Turning to `CC(C)(C)NCC(O)c1ccc(O)c(NC=O)c1` (configuration not stated), the T/C (dose: 50.0 mg/kg/injection, schedule: Q01DX009 (ip), vehicle: saline with Tween-80) is 110 % of control; the T/C under setting [9] was 100 % of control; the T/C under setting [10] is 102 % of control.

Turning to `COc1c(C(C)C)ccc2c1CCC1C3=C(CCC21C)C(=O)OC3` (configuration not stated), the T/C is 109 % of control (dose: 6.25 mg/kg/injection, schedule: Q01DX009 (ip), vehicle: DMSO); 100 % of control (dose: 12.5 mg/kg/injection, schedule: Q01DX009 (ip), vehicle: DMSO); 106 % of control (dose: 25.0 mg/kg/injection, schedule: Q01DX009 (ip), vehicle: DMSO).

With `COC(=O)C1CCC2c3ccccc3C(C1)c1ccccc12` (configuration not stated), the T/C by setting is: under setting [9], 90 % of control; under setting [13], 90 % of control; under setting [10], 118 % of control; under setting [14], 100 % of control; under setting [11], 118 % of control; under setting [15], 100 % of control.

These data come from PubChem BioAssay AID330 (DTP/NCI, 2004).
